Entries after “also recorded” stand apart in the source; their conditions may differ. Where two headings read alike, the source gives them in different places.
Assays:
WT EGFR [1] = biological target: T1, WT EGFR (Homo sapiens, UniProt P00533); experiment: In vitro TR-FRET assay, WT EGFR; type: binding; conditions: for WT EGFR pIC50: Table S1, TR FRET, n=1, 2 technical replicates
[2] = system: pEGFR (Tyr1068) in A431 cells; experiment: Cellular pEGFR inhibition by HTRF (A431); type: cell-based; conditions: for IC50: Homo sapiens, A-431, Figure 5a, read-out: pEGFR pIC50 (converted); for pEGFR pIC50: Figure 5a
Method: Cells were plated at 20 000 cells per well in 96-well plates and placed at 37 °C with 5% CO2. […] Compound and media were removed from the cells, and then 50 μL of HTRF lysis buffer was added (lysis buffer was diluted from 4× stock to 1× in deionized (DI) water, with 1% blocking agent also added). Cells were lysed on a plate shaker (2000 rpm) for 30 min at room temperature. pEGFR expression was monitored using the Cisbio Phospho-EGFR (Tyr1068) cellular kit (64EG1PEH). Total EGFR expression was monitored using the Cisbio Total EGFR cellular kit (64NG1PEH) as per the manufacturer’s instructions. […] Results were calculated as the ratio of pEGFR/total EGFR and then the percentage of 0 μM control.

A431 cells = experiment: Growth inhibition in adherent cell lines (SRB, 72 h); type: cell-based; conditions: for GI50: Homo sapiens, A-431, 72 h
Method: On day 1, the compounds were diluted to the required concentration in DMEM +10% FBS media, ensuring that the final DMSO concentration was 0.1% once added to cells. […] Cells were then fixed by adding 50% (wt/vol) TCA to each well of the plate and left at 4 °C for 1 h. The plates were then washed thoroughly with water, 100 μL of 0.4% SRB solution was added to the wells, and left at room temperature for 30 min. The plates were rinsed with 1% AcOH and then left to air-dry in a drying cabinet for 1 h. […] The absorbance was read at 570 nm using a FluoStar Omega plate reader.

[3] = system: EGFR phosphorylation in A431 cells; experiment: pEGFR inhibition by Western blot in A431; type: cell-based; conditions: 4 h
Method: Appropriately treated cells were lysed in Phosphosafe extraction buffer combined with cOmplete Protease Inhibitor Cocktail (Merck) prepared as per the manufacturer’s instructions.
Samples were prepared in Eppendorf vials by diluting them to the required concentrations with phosphate-buffered saline (PBS), and the appropriate amount of 4X XT sample buffer was added. This solution was vortexed, centrifuged, then placed at 98 °C for 5 min, and then centrifuged to remove the residue. Migration was performed using a 4–20% Criterion TGX Precast Midi Protein Gel, 18 well, 30 μL (Cat. No. 5671094) placed in a Criterion running tank (Cat. No. 1656001) and also using PowerPac HC high-current power supply (Bio-Rad) electrodes. Nitrocellulose membrane used was an Amersham Protran Premium 0.45 Nitrocellulose membrane (Cat. No. 15269794) and Ponceau S Stain (Sigma-Aldrich Cat. No. p7170).
Primary antibodies raised to EGFR (CST 4267) or pEGFR (CST 3777) were diluted (1:1000) in 5% BSA w/v. Loading control antibodies were prepared in 5% milk w/v with 1 × TBS/T (0.1 v/v) solution at a determined optimum concentration.
Secondary HRP-conjugated antibodies were diluted in 5% milk with w/v in 1 × TBS/T (0.1 v/v) solution at a determined optimum concentration.
Proteins were detected using the Clarity ECL Western blotting substrate (Bio-Rad).

DM EGFR = experiment: In vitro TR-FRET assay, DM EGFR; type: binding
WT EGFR [4] = biological target: T1, WT EGFR; experiment: Protein mass spectrometry after incubation of compound with EGFR; type: binding; conditions: for adduct formation with EGFR / release of 5FU from EGFR adduct: 15 μM compound, 4 μM EGFR, 4 hr; for adduct formation with EGFR: ambient temperature; for release of 5FU from EGFR adduct: protein mass spectrometry; for mass increase of initial (intact) adduct / mass increase of adduct after loss of 5FU: relative to apo protein
Method: Compounds were suspended in 10 mM in 100% DMSO and were added to 4 μM of EGFR to achieve the final compound concentration of 15 μM in 1% DMSO, in 25 mM Tris pH 8, 150 mM NaCl, 5% Glycerol before incubating at an ambient temperature for 4 hr time prior to analysis.
Following incubation, intact protein masses were determined using an Agilent 6530 Accurate Mass dual AJS/ESI Q-TOF instrument coupled to an Agilent 1260 Infinity II LC system. 1 μL of purified protein (∼1 mg/mL) was injected onto an MS Pac DS-10 Desalter cartridge ((Thermo Fisher Scientific), PN: 089170, 2.1 × 10 mm) for desalting and reversed phase separation at 70 °C. The mobile phase was 0.1% (v/v) formic acid in LC-MS grade water (A) and LC-MS grade acetonitrile (B) with separation performed over 7.5 min. […] Proteins were detected in positive ion mode using electrospray ionization with a nebulizer pressure of 45 psig, a drying gas flow of 5 L/min, and a source gas temperature of 325 °C. A sheath gas temperature of 400 °C, a gas flow of 11 L/min, a capillary voltage of 3500 V, and a nozzle voltage of 2000 V were also used. Mass spectra were acquired using MassHunter Acquisition software (version B.08.00) over a mass range of 100–3000 m/z at a rate of 1 spectra/s and 1000 ms/spectrum in the standard mass range (3200 m/z) at 2 GHz. The instrument had been calibrated over the selected mass range prior to analysis.

[5] = Compound media stability (LC-MS); type: physicochemical; conditions: DMEM + 10% FCS, 1.0 μM, 25 h
Method: Compound 53 (0.760 mg, 1.51 μmol) was dissolved in DMSO […] and then added to DMEM (Sigma-Aldrich 5796) + 10% FCS media (1.50 mL) such that the final concentration was 1.0 μM. Liquid chromatography-mass spectrometry (LC-MS) analysis was carried out at t = 0, 1, 3, and 25 h.

[6] = 19F NMR 5FU release study with N-acetyl-L-cysteine methyl ester; type: physicochemical; conditions: reaction with N-acetyl cysteine
Method: Reaction of the model systems with N-acetyl-L-cysteine methyl ester was assessed by ^19F NMR.
Acrylate-5FU conjugate (0.125 M) in d^6-DMSO (0.25 mL) was prepared in an NMR tube. N-Acetyl cysteine methyl ester (1.9 mg, 0.011 mmol) or glutathione (3.4 mg, 0.011 mmol) in d^6-DMSO was prepared. The cysteine/glutathione solution was added to the NMR tube, and the tube was inverted several times. The ^19F NMR was taken immediately for t = 0 measurement. Further measurements were taken at t = 30 min and t = 60 min.

[7] = A431 cell viability, 72 h, Figure 5c
[8] = A431 cell viability, 72 h, Figure 6b, single agents and equimolar combination
[9] = Table S1, TR FRET, n=1, 2 technical replicates
[10] = WT EGFR, TR-FRET, n > 2, Figure 5a and text

Compound: COc1cc2ncnc(Nc3ccc(F)c(Cl)c3)c2cc1OC(=O)/C=C/CN1CCCCC1 [compound 56, 4-((3-Chloro-4-fluorophenyl)amino)-7-methoxyquinazolin-6-yl (E)-4-(piperidin-1-yl)but-2-enoate]
- EGFR pIC50 (WT EGFR [1]; supplementary CSV column): 8.1 +/- 0.82
- IC50 [2]: 5010 nM
- GI50 (A431 cells; [7]): > 10000 nM
- GI50 (A431 cells; [8]): 10000 nM
- inhibition of EGFR phosphorylation at 1 μM [3]: some inhibition

Compound: (R, E)-1-(3-(3-((4-((3-Chloro-4-fluorophenyl)amino)-7-methoxyquinazolin-6-yl)oxy)pyrrolidin-1-yl)-3-oxoprop-1-en-1-yl)-5-fluoropyrimidine-2,4(1H,3H)-dione [compound 49]
- WT EGFR pIC50 (WT EGFR [1]): 5.6
- DM EGFR pIC50 (DM EGFR; [9]): 6.4

Compound: (S, E)-1-(3-(3-((4-((3-Chloro-4-fluorophenyl)amino)-7-methoxyquinazolin-6-yl)oxy)pyrrolidin-1-yl)-3-oxoprop-1-en-1-yl)-5-fluoropyrimidine-2,4(1H,3H)-dione [compound 50]
- WT EGFR pIC50 (WT EGFR [1]): 5.9
- DM EGFR pIC50 (DM EGFR; [9]): 6.6

Compound: COc1cc2ncnc(Nc3ccc(F)c(Cl)c3)c2cc1NC(=O)/C=C/CN1CCCCC1 [compound 2, dacomitinib, reference compound]
- IC50 [2]: 10 nM
- GI50 (A431 cells; [7]): 79.4 nM

Compound: 2-Fluoro-4-methoxy-5-((4-(1-methyl-1H-indol-3-yl)pyrimidin-2-yl)amino)phenyl (E)-3-(5-fluoro-2,4-dioxo-3,4-dihydropyrimidin-1(2H)-yl)acrylate [compound 35]
- WT EGFR pIC50 (WT EGFR [1]): < 4.0
- DM EGFR pIC50 (DM EGFR; [9]): 5.5
- adduct formation with EGFR (WT EGFR [4]): evidence of adduct formation
- release of 5FU from EGFR adduct (WT EGFR [4]): without evidence of the release of 5FU

Compound: (E)-N-(3-((5-Chloro-4-(pyrazolo[1,5-a]pyridin-3-yl)pyrimidin-2-yl)amino)-4-methoxyphenyl)-3-(5-fluoro-2,4-dioxo-3,4-dihydropyrimidin-1(2H)-yl)acrylamide [compound 30]
- WT EGFR pIC50 (WT EGFR [1]): 5.7
- DM EGFR pIC50 (DM EGFR): 6.8
- adduct formation with EGFR (WT EGFR [4]): an adduct formed
- release of 5FU from EGFR adduct (WT EGFR [4]): without 5FU release; also recorded: no evidence of the release of 5FU
- mass increase of initial (intact) adduct (WT EGFR [4]): 548 Da

Compound: 4-((3-Chloro-4-fluorophenyl)amino)-7-methoxyquinazolin-6-yl (E)-3-(5-fluoro-2,4-dioxo-3,4-dihydropyrimidin-1(2H)-yl)acrylate [compound 53]
- EGFR pIC50 (WT EGFR [1]; [10]): 6.8
- hydrolysis in cell media [5]: some hydrolysis did occur
- release of 5FU in cell media [5]: no observation of the release of 5FU
- adduct formation with EGFR (WT EGFR [4]): two new major adducts
- release of 5FU from EGFR adduct (WT EGFR [4]): loss of 5FU from the complex
- mass increase of adduct after loss of 5FU (WT EGFR [4]): 372 Da
- mass increase of initial (intact) adduct (WT EGFR [4]): 502 Da
- pEGFR pIC50 [2]: 7.8
- pGI50 (A431 cells; [7]): 5.3
- time to complete release of 5FU [6]: 1 h
- inhibition of EGFR phosphorylation at 1 μM [3]: not at 1 μM
- inhibition of EGFR phosphorylation at 10 μM [3]: marked inhibition

Compound: (E)-N-(4-((3-Chloro-4-fluorophenyl)amino)-7-methoxyquinazolin-6-yl)-3-(5-fluoro-2,4-dioxo-3,4-dihydropyrimidin-1(2H)-yl)acrylamide [compound 57]
- EGFR pIC50 (WT EGFR [1]; [10]): 7.3
- adduct formation with EGFR (WT EGFR [4]): clear adduct
- release of 5FU from EGFR adduct (WT EGFR [4]): negligible release of 5FU
- mass increase of adduct after loss of 5FU (WT EGFR [4]): 371 Da
- mass increase of initial (intact) adduct (WT EGFR [4]): 501 Da
- pEGFR pIC50 [2]: 5.6
- antiproliferative effect (A431 cells; A431, 72 h growth inhibition): no antiproliferative effects
- pGI50 (A431 cells; supplementary CSV column): <5.0
- inhibition of EGFR phosphorylation at 10 μM [3]: little inhibition

Compound: (E)-1-(3-(4-((4-((3-Chloro-4-fluorophenyl)amino)-7-methoxyquinazolin-6-yl)oxy)piperidin-1-yl)-3-oxoprop-1-en-1-yl)-5-fluoropyrimidine-2,4(1H,3H)-dione [compound 51]
- WT EGFR pIC50 (WT EGFR [1]): 6.6

Compound: (E)-1-(3-(3-((4-((3-Chloro-4-fluorophenyl)amino)-7-methoxyquinazolin-6-yl)oxy)azetidin-1-yl)-3-oxoprop-1-en-1-yl)-5-fluoropyrimidine-2,4(1H,3H)-dione [compound 48]
- WT EGFR pIC50 (WT EGFR [1]): 6.6
- DM EGFR pIC50 (DM EGFR; [9]): 6.7
- adduct formation with EGFR (WT EGFR [4]): covalent adduct formation
- release of 5FU from EGFR adduct (WT EGFR [4]): without evidence of the release of 5FU

Compound: O=c1[nH]cc(F)c(=O)[nH]1 [5-FU, 5-fluorouracil, reference compound]
- GI50 (A431 cells; A431 cell viability, 72 h, Figure 6a, single agents and equimolar combination): 631 nM
- GI50 (A431 cells; [8]): 631 nM

Compound: 3-((4-(1-Methyl-1H-indol-3-yl)pyrimidin-2-yl)amino)-4-nitrophenyl (E)-3-(5-Fluoro-2,4-dioxo-3,4-dihydropyrimidin-1(2H)-yl)acrylate [compound 39]
- WT EGFR pIC50 (WT EGFR [1]): < 4.0
- DM EGFR pIC50 (DM EGFR; [9]): 3.7
- adduct formation with EGFR (WT EGFR [4]): evidence of adduct formation
- release of 5FU from EGFR adduct (WT EGFR [4]): without evidence of the release of 5FU

From PMC10510387, “Targeting Cytotoxic Agents through EGFR-Mediated Covalent Binding and Release” (Journal of Medicinal Chemistry, 2023)
